According to PubChem BioAssay (NCI):
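Exposure lasted 48 hours, with cells grown in 96-well plates and compounds tested at five concentrations. The concentration for full growth arrest is given as TGI.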

Key:
Assay in all cases: DTP human tumour cell line panel, 48 h
[1] = system: NCI-H522 lung
[2] = system: CAKI-1 renal
[3] = system: MALME-3M melanoma
[4] = system: RPMI-8226 leukemia
[5] = system: UACC-257 melanoma
[6] = system: SK-MEL-5 melanoma
[7] = system: HCT-116 colon
[8] = system: HOP-62 NSCLC
[9] = system: OVCAR-3 ovarian
[10] = system: A498 renal
[11] = system: SNB-19 CNS
[12] = system: ACHN renal
[13] = system: PC-3 prostate
[14] = system: SK-MEL-2 melanoma
[15] = system: NCI-H226 lung
[16] = system: NCI-H460 lung
[17] = system: NCI-H23 lung
[18] = system: OVCAR-5 ovarian
[19] = system: IGROV1 ovarian
[20] = system: OVCAR-4 ovarian
[21] = system: HS 578T breast
[22] = system: K-562 leukemia
[23] = system: TK-10 renal
[24] = system: 786-0 renal
[25] = system: MCF7 breast
[26] = system: SN12C renal
[27] = system: SF-295 CNS
[28] = system: MOLT-4 leukemia
[29] = system: NCI/ADR-RES ovarian
[30] = system: HOP-92 NSCLC
[31] = system: HT29 colon
[32] = system: UACC-62 melanoma
[33] = system: UO-31 renal
[34] = system: MDA-N
[35] = system: A549 NSCLC
[36] = system: DU-145 prostate
[37] = system: U251 CNS
[38] = system: RXF 393 renal
[39] = system: COLO 205 colon
[40] = system: EKVX NSCLC
[41] = system: HCT-15 colon
[42] = system: KM12 colon
[43] = system: MDA-MB-231 breast
[44] = system: HCC-2998 colon
[45] = system: MDA-MB-435
[46] = system: SNB-75 CNS
[47] = system: SW-620 colon
[48] = system: OVCAR-8 ovarian
[49] = system: LOX IMVI melanoma
[50] = system: HL-60(TB) leukemia
[51] = system: T-47D breast
[52] = system: SK-OV-3 ovarian
[53] = system: SF-268 CNS
[54] = system: CCRF-CEM leukemia
[55] = system: SK-MEL-28 melanoma
[56] = system: M14 melanoma
[57] = system: SF-539 CNS
[58] = system: BT-549 breast

CN(CCCNCc1ccccn1)Cc1ccccc1O
TGI [1]: > 100 µM
TGI [2]: > 100 µM
TGI [3]: > 100 µM
TGI [4]: > 100 µM
TGI [5]: 92.2 µM
TGI [6]: 51.6 µM
TGI [7]: > 100 µM
TGI [8]: > 100 µM
TGI [9]: > 100 µM
TGI [10]: > 100 µM
TGI [11]: 68.5 µM
TGI [12]: 42.3 µM
TGI [13]: > 100 µM
TGI [14]: > 100 µM
TGI [15]: 97.8 µM
TGI [16]: > 100 µM
TGI [17]: 55.6 µM
TGI [18]: > 100 µM
TGI [19]: > 100 µM
TGI [20]: > 100 µM
TGI [21]: > 100 µM
TGI [22]: > 100 µM
TGI [23]: 64.8 µM
TGI [24]: > 100 µM
TGI [25]: > 100 µM
TGI [26]: > 100 µM
TGI [27]: 54.7 µM
TGI [28]: > 100 µM
TGI [29]: 95.2 µM
TGI [30]: > 100 µM
TGI [31]: 94.4 µM
TGI [32]: 43.2 µM
TGI [33]: 19.8 µM
TGI [34]: > 100 µM
TGI [35]: > 100 µM
TGI [36]: > 100 µM
TGI [37]: > 100 µM
TGI [38]: > 100 µM
TGI [39]: 94.4 µM
TGI [40]: > 100 µM
TGI [41]: > 100 µM
TGI [42]: > 100 µM
TGI [43]: > 100 µM
TGI [44]: > 100 µM
TGI [45]: > 100 µM
TGI [46]: > 100 µM
TGI [47]: > 100 µM
TGI [48]: > 100 µM
TGI [49]: > 100 µM
TGI [50]: > 100 µM
TGI [51]: > 100 µM
TGI [52]: > 100 µM
TGI [53]: > 100 µM
TGI [54]: > 100 µM
TGI [55]: > 100 µM

Cc1cn(CCCC2=NCCCN2)c(=O)[nH]c1=O
TGI [1]: > 100 µM
TGI [2]: > 100 µM
TGI [3]: > 100 µM
TGI [4]: > 100 µM
TGI [5]: > 100 µM
TGI [56]: > 100 µM
TGI [6]: > 100 µM
TGI [7]: > 100 µM
TGI [8]: > 100 µM
TGI [9]: > 100 µM
TGI [10]: > 100 µM
TGI [11]: > 100 µM
TGI [12]: > 100 µM
TGI [13]: > 100 µM
TGI [14]: > 100 µM
TGI [15]: > 100 µM
TGI [16]: > 100 µM
TGI [17]: > 100 µM
TGI [57]: > 100 µM
TGI [18]: > 100 µM
TGI [19]: > 100 µM
TGI [20]: > 100 µM
TGI [21]: > 100 µM
TGI [22]: > 100 µM
TGI [23]: > 100 µM
TGI [24]: > 100 µM
TGI [25]: > 100 µM
TGI [26]: > 100 µM
TGI [27]: > 100 µM
TGI [28]: > 100 µM
TGI [29]: > 100 µM
TGI [30]: > 100 µM
TGI [31]: > 100 µM
TGI [32]: > 100 µM
TGI [33]: > 100 µM
TGI [34]: > 100 µM
TGI [35]: > 100 µM
TGI [36]: > 100 µM
TGI [37]: > 100 µM
TGI [38]: > 100 µM
TGI [39]: > 100 µM
TGI [40]: > 100 µM
TGI [41]: > 100 µM
TGI [42]: > 100 µM
TGI [43]: > 100 µM
TGI [44]: > 100 µM
TGI [45]: > 100 µM
TGI [46]: > 100 µM
TGI [47]: > 100 µM
TGI [48]: > 100 µM
TGI [49]: > 100 µM
TGI [51]: > 100 µM
TGI [52]: > 100 µM
TGI [53]: > 100 µM
TGI [54]: > 100 µM
TGI [55]: > 100 µM

Cc1ccc(-c2cc(-c3ccccc3)nc(N)n2)c(O)c1
TGI [1]: > 100 µM
TGI [2]: > 100 µM
TGI [3]: > 100 µM
TGI [4]: > 100 µM
TGI [5]: > 100 µM
TGI [56]: > 100 µM
TGI [6]: > 100 µM
TGI [7]: > 100 µM
TGI [8]: > 100 µM
TGI [9]: > 100 µM
TGI [10]: > 100 µM
TGI [11]: > 100 µM
TGI [12]: > 100 µM
TGI [13]: > 100 µM
TGI [14]: > 100 µM
TGI [16]: > 100 µM
TGI [17]: > 100 µM
TGI [57]: > 100 µM
TGI [18]: > 100 µM
TGI [20]: > 100 µM
TGI [22]: > 100 µM
TGI [23]: > 100 µM
TGI [24]: > 100 µM
TGI [25]: > 100 µM
TGI [26]: > 100 µM
TGI [27]: > 100 µM
TGI [28]: > 100 µM
TGI [29]: > 100 µM
TGI [30]: > 100 µM
TGI [31]: > 100 µM
TGI [32]: > 100 µM
TGI [33]: > 100 µM
TGI [34]: > 100 µM
TGI [35]: > 100 µM
TGI [36]: > 100 µM
TGI [37]: > 100 µM
TGI [38]: > 100 µM
TGI [39]: > 100 µM
TGI [41]: > 100 µM
TGI [42]: > 100 µM
TGI [58]: > 100 µM
TGI [43]: > 100 µM
TGI [44]: > 100 µM
TGI [45]: > 100 µM
TGI [47]: > 100 µM
TGI [48]: > 100 µM
TGI [50]: > 100 µM
TGI [51]: > 100 µM
TGI [52]: > 100 µM
TGI [53]: > 100 µM
TGI [54]: > 100 µM
TGI [55]: > 100 µM

CN(CCCN=C=S)CCCN1c2ccccc2CCc2ccccc21
TGI [2]: 3.21 µM
TGI [3]: 3.48 µM
TGI [5]: 3.85 µM
TGI [56]: 3.16 µM
TGI [6]: 3.43 µM
TGI [7]: 3.09 µM
TGI [9]: 3.14 µM
TGI [10]: 3.07 µM
TGI [11]: 3.14 µM
TGI [12]: 3.12 µM
TGI [14]: 3.38 µM
TGI [16]: 3.45 µM
TGI [17]: 3.11 µM
TGI [57]: 3.46 µM
TGI [18]: 3.35 µM
TGI [20]: 3.56 µM
TGI [21]: 4.03 µM
TGI [22]: > 100 µM
TGI [23]: 3.26 µM
TGI [24]: 3.08 µM
TGI [26]: 3.17 µM
TGI [28]: > 100 µM
TGI [29]: 2.67 µM
TGI [30]: 4.29 µM
TGI [31]: 2.94 µM
TGI [32]: 3.2 µM
TGI [33]: 3 µM
TGI [34]: 3.16 µM
TGI [35]: 3.16 µM
TGI [36]: 3.22 µM
TGI [37]: 3.26 µM
TGI [38]: 3.39 µM
TGI [41]: 2.9 µM
TGI [42]: 3.5 µM
TGI [43]: 3.29 µM
TGI [44]: 2.69 µM
TGI [45]: 3.27 µM
TGI [48]: 3.43 µM
TGI [51]: 3.92 µM
TGI [52]: 3.16 µM
TGI [53]: 3.24 µM
TGI [54]: > 100 µM
